From patent US12453709B2, “Compositions and methods for treating autism” (priority 2013, dated 2025)
Marks after values point to notes of the source that are not given here.

Test system: male patients diagnosed with autism
Experiment: Study HT 02-121: adverse events
Type: in vivo, human
Experimental: The purpose of this clinical study (referred to herein as “Study HT 02-121”; i.e., Example 6) was to determine whether L1-79 was a well-tolerated and clinically useful agent for the treatment of ASD, and to assess the PK and pharmacodynamics (PD) of four weeks of TID dosing with L1-79. […] The first cohort of 20 patients was comprised of three groups of patients: The first group of five patients received open-label L1-79 100 mg TID and underwent PK and EKG assessments. […] The PK and safety data from the open-label L1-79 100 mg TID group was submitted to FDA for review and acceptance before the second cohort was enrolled. The second cohort was procedurally identical to the first. The second cohort of 20 patients was comprised of the same three groups of patients but a dose of 200 mg TID was used instead of 100 mg TID. The key inclusion criteria were as follows: […] Safety was the primary endpoint of the study. The following safety endpoints were assessed: ECGs, physical exams, laboratory evaluations (hematology, chemistry and urinalysis), vital signs, including orthostatic blood pressure, adverse events (AEs) and concomitant medications. The incidence of AEs by primary system organ class and preferred term is presented in Table 7, and a listing of the AEs reported during the study is presented in Table 8. All AEs were mild to moderate in intensity and self-limited.

[1] = patient 01-011, OL 200 mg TID, treatment emergent Y, resolved
[2] = patient 02-001, OL 100 mg TID, treatment emergent Y, resolved
[3] = patient 02-018, DB 200 mg TID, treatment emergent Y, resolved

## CC(N)(Cc1ccc(O)cc1)C(=O)O (racemic) [L1-79, α-methyl-DL-tyrosine]
28-day treatment period
  safety and tolerability: safe and well tolerated
DB 100 mg TID, N = 10
  Incidence of AEs: Agitation: 0[0] n(%)
  Incidence of AEs: All primary SOC: 1(10.0) n(%)
  Incidence of AEs: Amylase †: 0[0] n(%)
  Incidence of AEs: Anxiety: 0[0] n(%)
  Incidence of AEs: Blood TSH †: 0[0] n(%)
  Incidence of AEs: Confusional state: 0[0] n(%)
  Incidence of AEs: Cough: 0[0] n(%)
  Incidence of AEs: Crystal urine present: 0[0] n(%)
  Incidence of AEs: Diarrhoea: 0[0] n(%)
  Incidence of AEs: Ear infection: 0[0] n(%)
  Incidence of AEs: Fatigue: 0[0] n(%)
  Incidence of AEs: GI disorders: 0[0] n(%)
  Incidence of AEs: General disorders & administration site conditions: 0[0] n(%)
  Incidence of AEs: Generalized tonic-clonic seizure: 0[0] n(%)
  Incidence of AEs: Immune system disorders: 0[0] n(%)
  Incidence of AEs: Infections and infestations: 0[0] n(%)
  Incidence of AEs: International self-injury: 0[0] n(%)
  Incidence of AEs: Investigations: 0[0] n(%)
  Incidence of AEs: Irritability: 0[0] n(%)
  Incidence of AEs: Nasopharyngitis: 0[0] n(%)
  Incidence of AEs: Nervous system disorders: 1(10.0) n(%)
  Incidence of AEs: Otitis externa: 0[0] n(%)
  Incidence of AEs: Psychiatric disorders: 0[0] n(%)
  Incidence of AEs: Pyrexia: 0[0] n(%)
  Incidence of AEs: Renal and urinary disorders: 0[0] n(%)
  Incidence of AEs: Respiratory, thoracic & mediastinal disorders: 0[0] n(%)
  Incidence of AEs: Seasonal allergy: 0[0] n(%)
  Incidence of AEs: Syncope: 1(10.0) n(%)
  Incidence of AEs: Urinary incontinence: 0[0] n(%)
  Number of AE events: All primary SOC: 1 [e]
  Number of AE events: Nervous system disorders: 1 [e]
  Number of AE events: Syncope: 1 [e]
DB 200 mg TID, N = 11
  Incidence of AEs: Agitation: 0[0] n(%)
  Incidence of AEs: All primary SOC: 6(54.5) n(%)
  Incidence of AEs: Amylase †: 0[0] n(%)
  Incidence of AEs: Anxiety: 1(9.1) n(%)
  Incidence of AEs: Blood TSH †: 1(9.1) n(%)
  Incidence of AEs: Confusional state: 0[0] n(%)
  Incidence of AEs: Cough: 0[0] n(%)
  Incidence of AEs: Crystal urine present: 2(18.2) n(%)
  Incidence of AEs: Diarrhoea: 3(27.3) n(%)
  Incidence of AEs: Ear infection: 1(9.1) n(%)
  Incidence of AEs: Fatigue: 0[0] n(%)
  Incidence of AEs: GI disorders: 3(27.3) n(%)
  Incidence of AEs: General disorders & administration site conditions: 0[0] n(%)
  Incidence of AEs: Generalized tonic-clonic seizure: 1(9.1) n(%)
  Incidence of AEs: Immune system disorders: 0[0] n(%)
  Incidence of AEs: Infections and infestations: 2(18.2) n(%)
  Incidence of AEs: International self-injury: 0[0] n(%)
  Incidence of AEs: Investigations: 3(27.3) n(%)
  Incidence of AEs: Irritability: 0[0] n(%)
  Incidence of AEs: Nasopharyngitis: 0[0] n(%)
  Incidence of AEs: Nervous system disorders: 1(9.1) n(%)
  Incidence of AEs: Otitis externa: 1(9.1) n(%)
  Incidence of AEs: Psychiatric disorders: 1(9.1) n(%)
  Incidence of AEs: Pyrexia: 0[0] n(%)
  Incidence of AEs: Renal and urinary disorders: 0[0] n(%)
  Incidence of AEs: Respiratory, thoracic & mediastinal disorders: 0[0] n(%)
  Incidence of AEs: Seasonal allergy: 0[0] n(%)
  Incidence of AEs: Syncope: 0[0] n(%)
  Incidence of AEs: Urinary incontinence: 0[0] n(%)
  Number of AE events: All primary SOC: 10 [e]
  Number of AE events: Anxiety: 1 [e]
  Number of AE events: Blood TSH †: 1 [e]
  Number of AE events: Crystal urine present: 2 [e]
  Number of AE events: Diarrhoea: 3 [e]
  Number of AE events: Ear infection: 1 [e]
  Number of AE events: GI disorders: 3 [e]
  Number of AE events: Generalized tonic-clonic seizure: 1 [e]
  Number of AE events: Infections and infestations: 2 [e]
  Number of AE events: Investigations: 3 [e]
  Number of AE events: Nervous system disorders: 1 [e]
  Number of AE events: Otitis externa: 1 [e]
  Number of AE events: Psychiatric disorders: 1 [e]
OL 100 mg TID, N = 5
  Incidence of AEs: Agitation: 0[0] n(%)
  Incidence of AEs: All primary SOC: 2(40.0) n(%)
  Incidence of AEs: Amylase †: 0[0] n(%)
  Incidence of AEs: Anxiety: 1(20.0) n(%)
  Incidence of AEs: Blood TSH †: 0[0] n(%)
  Incidence of AEs: Confusional state: 1(20.0) n(%)
  Incidence of AEs: Cough: 0[0] n(%)
  Incidence of AEs: Crystal urine present: 0[0] n(%)
  Incidence of AEs: Diarrhoea: 0[0] n(%)
  Incidence of AEs: Ear infection: 0[0] n(%)
  Incidence of AEs: Fatigue: 0[0] n(%)
  Incidence of AEs: GI disorders: 0[0] n(%)
  Incidence of AEs: General disorders & administration site conditions: 0[0] n(%)
  Incidence of AEs: Generalized tonic-clonic seizure: 0[0] n(%)
  Incidence of AEs: Immune system disorders: 0[0] n(%)
  Incidence of AEs: Infections and infestations: 0[0] n(%)
  Incidence of AEs: International self-injury: 2(40.0) n(%)
  Incidence of AEs: Investigations: 0[0] n(%)
  Incidence of AEs: Irritability: 2(40.0) n(%)
  Incidence of AEs: Nasopharyngitis: 0[0] n(%)
  Incidence of AEs: Nervous system disorders: 0[0] n(%)
  Incidence of AEs: Otitis externa: 0[0] n(%)
  Incidence of AEs: Psychiatric disorders: 2(40.0) n(%)
  Incidence of AEs: Pyrexia: 0[0] n(%)
  Incidence of AEs: Renal and urinary disorders: 0[0] n(%)
  Incidence of AEs: Respiratory, thoracic & mediastinal disorders: 0[0] n(%)
  Incidence of AEs: Seasonal allergy: 0[0] n(%)
  Incidence of AEs: Syncope: 0[0] n(%)
  Incidence of AEs: Urinary incontinence: 0[0] n(%)
  Number of AE events: All primary SOC: 6 [e]
  Number of AE events: Anxiety: 1 [e]
  Number of AE events: Confusional state: 1 [e]
  Number of AE events: International self-injury: 2 [e]
  Number of AE events: Irritability: 2 [e]
  Number of AE events: Psychiatric disorders: 6 [e]
OL 200 mg TID, N = 6
  Incidence of AEs: Agitation: 0[0] n(%)
  Incidence of AEs: All primary SOC: 2(40.0) n(%)
  Incidence of AEs: Amylase †: 0[0] n(%)
  Incidence of AEs: Anxiety: 0[0] n(%)
  Incidence of AEs: Blood TSH †: 0[0] n(%)
  Incidence of AEs: Confusional state: 0[0] n(%)
  Incidence of AEs: Cough: 1(20.0) n(%)
  Incidence of AEs: Crystal urine present: 0[0] n(%)
  Incidence of AEs: Diarrhoea: 0[0] n(%)
  Incidence of AEs: Ear infection: 0[0] n(%)
  Incidence of AEs: Fatigue: 1(20.0) n(%)
  Incidence of AEs: GI disorders: 0[0] n(%)
  Incidence of AEs: General disorders & administration site conditions: 2(40.0) n(%)
  Incidence of AEs: Generalized tonic-clonic seizure: 0[0] n(%)
  Incidence of AEs: Immune system disorders: 1(20.0) n(%)
  Incidence of AEs: Infections and infestations: 0[0] n(%)
  Incidence of AEs: International self-injury: 0[0] n(%)
  Incidence of AEs: Investigations: 0[0] n(%)
  Incidence of AEs: Irritability: 0[0] n(%)
  Incidence of AEs: Nasopharyngitis: 0[0] n(%)
  Incidence of AEs: Nervous system disorders: 0[0] n(%)
  Incidence of AEs: Otitis externa: 0[0] n(%)
  Incidence of AEs: Psychiatric disorders: 0[0] n(%)
  Incidence of AEs: Pyrexia: 1(20.0) n(%)
  Incidence of AEs: Renal and urinary disorders: 0[0] n(%)
  Incidence of AEs: Respiratory, thoracic & mediastinal disorders: 1(20.0) n(%)
  Incidence of AEs: Seasonal allergy: 1(20.0) n(%)
  Incidence of AEs: Syncope: 0[0] n(%)
  Incidence of AEs: Urinary incontinence: 0[0] n(%)
  Number of AE events: All primary SOC: 4 [e]
  Number of AE events: Cough: 1 [e]
  Number of AE events: Fatigue: 1 [e]
  Number of AE events: General disorders & administration site conditions: 2 [e]
  Number of AE events: Immune system disorders: 1 [e]
  Number of AE events: Pyrexia: 1 [e]
  Number of AE events: Respiratory, thoracic & mediastinal disorders: 1 [e]
  Number of AE events: Seasonal allergy: 1 [e]
Patient 01-011, OL 200 mg TID
  AE Relationship: cough: not related
  AE Relationship: pyrexia (fever): not related
[1]
  AE Severity: cough: moderate
  AE Severity: pyrexia (fever): moderate
Patient 01-014, DB 200 mg TID
  AE Relationship: crystal urine present (urine cystine crystal present): not related
Patient 01-014, DB 200 mg TID, reported at 4-week follow-up visit, resolved
  AE Severity: crystal urine present (urine cystine crystal present): mild
Patient 01-016, DB 200 mg TID
  AE Relationship: diarrhoea (diarrhea): not related
Patient 01-016, DB 200 mg TID, treatment emergent Y, resolved
  AE Severity: diarrhoea (diarrhea): moderate
Patient 01-016, OL 200 mg TID
  AE Relationship: fatigue (tiredness): possibly related
  AE Relationship: seasonal allergy: not related
Patient 01-016, OL 200 mg TID, treatment emergent Y, not resolved
  AE Severity: seasonal allergy: moderate
Patient 01-016, OL 200 mg TID, treatment emergent Y, resolved
  AE Severity: fatigue (tiredness): mild
Patient 01-018, DB 200 mg TID
  AE Relationship: crystal urine present (urine cystine crystal present): not related
Patient 01-018, DB 200 mg TID, reported at 4-week follow-up visit, resolved
  AE Severity: crystal urine present (urine cystine crystal present): mild
Patient 02-001, OL 100 mg TID
  AE Relationship: anxiety (anxious): possibly related
  AE Relationship: confusional state (mental confusion): possibly related
  AE Relationship: intentional self-injury (self injurious behavior): possibly related
  AE Relationship: irritability: possibly related
[2]
  AE Severity: anxiety (anxious): mild
  AE Severity: confusional state (mental confusion): mild
  AE Severity: intentional self-injury (self injurious behavior): mild
  AE Severity: irritability: mild
Patient 02-002, OL 100 mg TID
  AE Relationship: intentional self-injury (violent episodes of self injurious behavior): probably related
  AE Relationship: irritability: probably related
Patient 02-002, OL 100 mg TID, treatment emergent Y, outcome unknown
  AE Severity: irritability: mild
Patient 02-002, OL 100 mg TID, treatment emergent Y, resolving
  AE Severity: intentional self-injury (violent episodes of self injurious behavior): mild
Patient 02-009, DB 100 mg TID
  AE Relationship: synoope (synoope): not related
Patient 02-009, DB 100 mg TID, treatment emergent Y, resolved
  AE Severity: synoope (synoope): mild
Patient 02-018, DB 200 mg TID
  AE Relationship: anxiety (anxious mood): possibly related
  AE Relationship: blood thyroid stimulating hormone increased (elevated TSH): possibly related
  AE Relationship: diarrhoea (diarrhea): possibly related
  AE Relationship: otitis externa: not related
Patient 02-018, DB 200 mg TID, reported at 4-week follow-up visit, resolved
  AE Severity: blood thyroid stimulating hormone increased (elevated TSH): moderate
[3]
  AE Severity: anxiety (anxious mood): mild
  AE Severity: diarrhoea (diarrhea): moderate
  AE Severity: otitis externa: mild
Patient 02-023, DB 200 mg TID
  AE Relationship: generalized tonic-clonic seizer (grand mal seizure): possibly related
Patient 02-023, DB 200 mg TID, treatment emergent Y, resolved, discontinued Y
  AE Severity: generalized tonic-clonic seizer (grand mal seizure): moderate
Patient 02-024, DB 200 mg TID
  AE Relationship: diarrhoea (diarrhea): not related
Patient 02-024, DB 200 mg TID, AE reported pre-treatment
  AE Relationship: ear infection: not related
Patient 02-024, DB 200 mg TID, AE reported pre-treatment, resolving
  AE Severity: ear infection: mild
Patient 02-024, DB 200 mg TID, treatment emergent Y, resolved
  AE Severity: diarrhoea (diarrhea): mild
